# Values quoted from earlier work in patent US7317127B2, “Process for the optical resolution and recycling of tomoxetine” (Teva Pharmaceutical Fine Chemicals S.r.l, priority 2004, dated 2008).
# Details: as disclosed in U.S. Pat. No. 4,018,895, EP 0 052 492, EP 0 721 777
smiles,measurement,setting,value
"CNCC[C@@H](Oc1ccccc1C)c1ccccc1 [Atomoxetine, (R)(−)-N-methyl-3-(2-methylphenoxy)-3-phenylpropylamine]",effectiveness relative to the (+)-enantiomer,versus (S)-(+)-tomoxetine,about nine times more effective than the (+)-enantiomer
same,effectiveness relative to the racemic mixture,versus racemic tomoxetine,about twice as effective as the racemic mixture
